Measured values: patent US8765746B2 (Millennium Pharmaceuticals, Inc., priority 2010, dated 2014)

Experiments:
PI3Kbeta = biological target: T1, PI3Kbeta (Homo sapiens, UniProt P42338); experiment: Human PI3K beta enzyme assay (HTRF, as for PI3K alpha); type: biochemical; details: for inhibition at 1.11 µM: read-out: PI3Kbeta % inh; for inhibition at 1.11 µM / PI3Kbeta % inh: at 1.11 μM
T1 construct: His (N); host or cells: SF9 insect cells (baculovirus)
Source text: (§1) The catalytic subunits of PI3Ks are cloned into either pDEST8(p110 alpha) or pDEST10(p110beta, p110delta, and p110gamma) as N-terminal His tagged fusion proteins using the Gateway system (Invitrogen, catalog#11804-010 for pDEST8 and 11806-015 for pDEST10). The sequences are verified before recombinant protein expression using the Baculovirus Expression System with Gateway® Technology. The accession numbers for the subunits are as follows:
(§2) The regulatory subunits of PI3Ks are cloned into pDEST8 as un-tagged protein using the Gateway system (Catalog#11804-010). The sequences are verified before recombinant protein expression using the Baculovirus Expression System with Gateway® Technology. The accession numbers for the subunits are as follows:
(§3) For expression of the p110 complexes, the p85 (MOI of 4) is co-infected with p110 alpha, beta, and delta respectively (1MOI) in SF9 cells and harvested at 60 hours post co-infection. P110 gamma was infected at 1 MOI and harvested at 60 hours post infection.
(§4) For purification, PI3Ks are purified by Ni-NTA Agarose (Qiagen #30250) followed by Mono Q 10/100 GL (Ge Healthcare #17-5167-01). VPS34 is purified by Glutathione Sepharose 4 Fast Flow (GE Healthcare #17-5132-03) followed by HiTrap Q (GE Healthcare #17-1153-01).
(§5) 0.5 uL compounds in DMSO are added to wells of a 384 well microtitre plate (Corning 3575). At room temperature: 10 ul PI3K reaction buffer (50 mM Hepes, 5 mM DTT, 150 mM NaCl, 10 mM beta-glycerophosphate, 10 mM MgCl2, 0.25 mM sodium cholate and 0.001% CHAPS, pH 7.00) containing ATP (25 uM, Promega) is added followed immediately by 10 ul PI3K reaction buffer containing di-C8 PI(4,5)P2 (3.5 uM, CellSignals) and PI3Kalpha (0.4875 nM, Millennium Protein Sciences Group) and the mixture is incubated with shaking at room temperature for 30 minutes. Then 5 ul PI3K stop mix (50 mM Hepes, 5 mM DTT, 150 mM NaCl, 0.01% Tween-20, 15 mM EDTA and 25 nM biotin-PI(3,4,5)P3 (Echelon) is added to quench the reaction followed immediately by addition of 5 ul HTRF detection mix (50 mM Hepes, 5 mM DTT, 150 mM NaCl, 0.01% Tween-20, 40 mM KF, 10 nM GST:GRP-1 PH domain (Millennium Protein Sciences Group), 15 nM Streptavidin-XL (CisBio) and 0.375 nM anti-GST Eu++ antibody (CisBio) at pH 7.00). The plates are then incubated for 1 hour at room temperature with shaking and then read on a BMG PheraStar Plus reader.
2) Human PI3K beta, delta and gamma isoforms are tested using the procedure described for PI3K alpha above but with the following changes: PI3K beta (5.25 nM), PI3K delta (0.75 nM) and PI3K gamma (5 nM). All isoforms supplied by Millennium Protein Science Group.

PI3Kalpha = biological target: T2, PI3Kalpha (Homo sapiens, UniProt P42336); experiment: Human PI3Kα enzyme assay (HTRF); type: biochemical; details: for inhibition at 1.11 µM: read-out: PI3Kalpha % inh; for PI3Kalpha % inh: at 1.11 μM
T2 construct: His (N); host or cells: SF9 insect cells (baculovirus)
T2 sequence (P42336 whole entry): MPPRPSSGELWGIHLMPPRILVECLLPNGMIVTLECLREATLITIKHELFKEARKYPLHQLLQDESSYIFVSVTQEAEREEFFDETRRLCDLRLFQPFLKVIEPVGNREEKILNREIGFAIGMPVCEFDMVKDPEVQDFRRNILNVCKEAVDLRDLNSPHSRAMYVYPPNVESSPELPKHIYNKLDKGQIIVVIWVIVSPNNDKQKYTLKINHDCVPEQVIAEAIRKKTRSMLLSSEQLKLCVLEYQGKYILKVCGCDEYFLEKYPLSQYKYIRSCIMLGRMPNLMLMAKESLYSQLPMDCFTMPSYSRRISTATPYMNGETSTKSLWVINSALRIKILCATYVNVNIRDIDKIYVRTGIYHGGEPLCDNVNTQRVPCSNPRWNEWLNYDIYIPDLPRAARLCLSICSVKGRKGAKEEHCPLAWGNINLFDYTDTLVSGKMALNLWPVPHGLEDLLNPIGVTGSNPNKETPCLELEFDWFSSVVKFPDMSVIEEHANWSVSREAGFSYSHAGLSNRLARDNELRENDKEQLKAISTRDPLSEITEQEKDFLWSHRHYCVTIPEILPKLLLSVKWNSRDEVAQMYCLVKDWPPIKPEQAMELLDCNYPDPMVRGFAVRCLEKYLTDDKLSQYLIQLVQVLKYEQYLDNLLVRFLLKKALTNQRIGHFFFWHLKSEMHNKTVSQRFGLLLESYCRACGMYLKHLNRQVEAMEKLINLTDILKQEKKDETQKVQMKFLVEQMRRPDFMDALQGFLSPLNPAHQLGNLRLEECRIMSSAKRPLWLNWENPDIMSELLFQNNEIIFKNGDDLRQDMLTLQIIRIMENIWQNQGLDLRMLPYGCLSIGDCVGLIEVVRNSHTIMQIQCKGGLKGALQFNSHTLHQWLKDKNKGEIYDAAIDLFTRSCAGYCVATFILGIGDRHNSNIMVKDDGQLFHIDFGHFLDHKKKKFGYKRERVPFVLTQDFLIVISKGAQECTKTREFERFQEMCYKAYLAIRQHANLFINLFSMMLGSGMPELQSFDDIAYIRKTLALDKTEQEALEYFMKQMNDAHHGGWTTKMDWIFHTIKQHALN
T2 sequence (P27986 whole entry partner): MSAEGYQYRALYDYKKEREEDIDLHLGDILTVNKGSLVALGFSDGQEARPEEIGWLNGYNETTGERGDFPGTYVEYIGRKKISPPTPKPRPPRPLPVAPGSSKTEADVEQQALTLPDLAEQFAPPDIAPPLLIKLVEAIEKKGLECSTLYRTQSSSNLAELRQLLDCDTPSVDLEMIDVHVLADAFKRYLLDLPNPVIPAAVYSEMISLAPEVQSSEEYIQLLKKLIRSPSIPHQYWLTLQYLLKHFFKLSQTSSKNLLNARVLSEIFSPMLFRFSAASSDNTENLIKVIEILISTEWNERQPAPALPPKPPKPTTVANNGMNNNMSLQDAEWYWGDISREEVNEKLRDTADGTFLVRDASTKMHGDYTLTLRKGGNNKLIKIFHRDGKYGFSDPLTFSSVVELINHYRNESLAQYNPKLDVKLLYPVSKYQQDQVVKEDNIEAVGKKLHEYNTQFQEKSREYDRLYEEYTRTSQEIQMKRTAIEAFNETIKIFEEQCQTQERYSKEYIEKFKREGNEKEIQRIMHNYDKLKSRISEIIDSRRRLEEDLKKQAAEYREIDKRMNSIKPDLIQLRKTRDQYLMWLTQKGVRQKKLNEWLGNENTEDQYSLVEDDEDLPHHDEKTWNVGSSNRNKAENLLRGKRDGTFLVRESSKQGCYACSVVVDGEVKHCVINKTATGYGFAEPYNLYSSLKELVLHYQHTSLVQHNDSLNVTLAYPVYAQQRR
Source text: as §1, §2, §3, §4
1) Human PI3Kα enzyme assay method
as §5

T1 sequence (P42338 whole entry): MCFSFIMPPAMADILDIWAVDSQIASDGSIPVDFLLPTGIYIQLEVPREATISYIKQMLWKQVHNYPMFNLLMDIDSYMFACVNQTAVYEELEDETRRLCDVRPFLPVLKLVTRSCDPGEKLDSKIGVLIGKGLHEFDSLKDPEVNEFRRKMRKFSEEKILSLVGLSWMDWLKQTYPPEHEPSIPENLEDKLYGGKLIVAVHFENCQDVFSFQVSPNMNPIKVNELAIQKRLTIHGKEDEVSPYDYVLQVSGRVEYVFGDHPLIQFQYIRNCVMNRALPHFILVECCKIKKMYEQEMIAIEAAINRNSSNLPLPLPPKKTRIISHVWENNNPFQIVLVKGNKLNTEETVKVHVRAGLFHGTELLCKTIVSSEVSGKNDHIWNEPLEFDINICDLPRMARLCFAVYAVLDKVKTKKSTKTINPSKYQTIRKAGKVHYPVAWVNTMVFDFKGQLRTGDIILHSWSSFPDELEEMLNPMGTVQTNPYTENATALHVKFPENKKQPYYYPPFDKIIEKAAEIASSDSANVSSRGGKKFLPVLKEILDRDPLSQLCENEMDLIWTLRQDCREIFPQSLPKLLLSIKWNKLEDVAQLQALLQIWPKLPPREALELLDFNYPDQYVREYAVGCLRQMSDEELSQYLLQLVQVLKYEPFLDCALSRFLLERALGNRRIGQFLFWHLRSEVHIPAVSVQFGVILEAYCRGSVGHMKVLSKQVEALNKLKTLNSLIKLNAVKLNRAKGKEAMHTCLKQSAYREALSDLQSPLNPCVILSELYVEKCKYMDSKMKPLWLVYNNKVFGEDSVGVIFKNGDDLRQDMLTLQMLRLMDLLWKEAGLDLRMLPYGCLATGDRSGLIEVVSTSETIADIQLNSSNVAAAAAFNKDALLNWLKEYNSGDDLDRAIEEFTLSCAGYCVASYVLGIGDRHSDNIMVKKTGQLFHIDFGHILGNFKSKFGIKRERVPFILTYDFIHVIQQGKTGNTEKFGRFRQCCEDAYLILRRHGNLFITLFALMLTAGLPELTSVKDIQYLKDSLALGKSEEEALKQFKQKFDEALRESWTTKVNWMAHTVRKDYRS
T1 sequence (P27986 whole entry partner): as the sequence (P27986 whole entry partner) above

| Compound | inhibition at 1.11 µM (PI3Kbeta) [%] | IC50 (PI3Kbeta; read-out: IC50 (inhibit PI3Kbeta)) [nM] | inhibition at 1.11 µM (PI3Kalpha) [%] | PI3Kbeta % inh (PI3Kbeta) [%] | PI3Kalpha % inh (PI3Kalpha) [%] |
| --- | --- | --- | --- | --- | --- |
| CC(=O)Nc1cc(-c2cc3c(s2)C(=O)CC3c2ccc(Cl)cc2)ccn1 (stereo not drawn) [Compound 16, N-(4-(4-(4-chlorophenyl)-6-oxo-5,6-dihydro-4H-cyclopenta[b]thiophen-2-yl)pyridin-2-yl)acetamide] | 54.5 | 100 to 1000 | 24.5 | – | – |
| N#Cc1c(N2CCOCC2)sc2c1C(c1ccc(Cl)c(Cl)c1)CCNC2=O (stereo not drawn) [Compound 116] | – | – | – | 66.61 | 36.43 |
| O=C1N[C@@H](CO)CC(c2ccc3ccccc3c2)c2nc(N3CCOCC3)sc21 (stereo partly drawn) [Compound 120] | – | – | – | 44.05 | 12.90 |
| CNC(=O)[C@@H]1NC(=O)c2sc(C3=CCOCC3)cc2[C@H]1c1ccc(Cl)cc1 [Compound 121] | – | – | – | 104.98 | 40.77 |
| O=C1NCC(c2ccc(Cl)cc2)c2c1sc(N1CCOCC1)c2C#Cc1cccnc1 (stereo not drawn) [Compound 122] | 128 | – | 97.8 | – | – |
| CN(C)CC#Cc1c(N2CCOCC2)sc2c1C(c1ccc(Cl)cc1)CNC2=O (stereo not drawn) [Compound 130] | 116 | – | 58.1 | – | – |
| O=C1NCCC(c2ccc3ccccc3c2)c2nc(N3CCOCC3)sc21 (stereo not drawn) [Compound 131] | – | – | – | 85.03 | 9.87 |
| CNC(=O)[C@@H]1NC(=O)c2sc(N3CCOCC3)cc2[C@H]1c1ccc(Cl)c(Cl)c1 [Compound 132] | 115 | – | 54 | – | – |
| N#Cc1c(N2CCOCC2)sc2c1C(c1ccc3ccccc3c1)CNC2=O (stereo not drawn) [Compound 135, 2-(morpholin-4-yl)-4-(2-naphthyl)-7-oxo-4,5,6,7-tetrahydrothieno[2,3-c]pyridine-3-carbonitrile] | 121 | – | 89.8 | – | – |
| COC(=O)C1C(=O)c2sc(N3CCOCC3)cc2C1c1ccc(Cl)c(Cl)c1 (stereo not drawn) [Compound 139, methyl 4-(3,4-dichlorophenyl)-2-(morpholin-4-yl)-6-oxo-5,6-dihydro-4H-cyclopenta[b]thiophene-5-carboxylate] | 95.6 | – | 14.4 | – | – |
| C=CCC1(C(=O)OC)NC(=O)c2sc(N3CCOCC3)cc2C1c1ccc(Cl)c(Cl)c1 (stereo not drawn) [Compound 154, methyl 5-allyl-4-(3,4-dichlorophenyl)-2-(morpholin-4-yl)-7-oxo-4,5,6,7-tetrahydrothieno[2,3-c]pyridine-5-carboxylate] | 75.5 | – | 10.9 | – | – |
| CNC(=O)[C@H]1NC(=O)c2sc(N3CCOCC3)cc2[C@H]1c1ccc(Cl)cc1 [Compound 157] | 111 | – | 30.1 | – | – |

More lines, now with the values ahead:

| inhibition at 1.11 µM (PI3Kbeta) [%] | IC50 (PI3Kbeta; read-out: IC50 (inhibit PI3Kbeta)) [nM] | inhibition at 1.11 µM (PI3Kalpha) [%] | PI3Kbeta % inh (PI3Kbeta) [%] | PI3Kalpha % inh (PI3Kalpha) [%] | Compound |
| --- | --- | --- | --- | --- | --- |
| 118 | – | 67.2 | – | – | N#Cc1c(N2CCOCC2)sc2c1C(c1ccc(Cl)c(Cl)c1)CNC2=O (stereo not drawn) [Compound 159] |
| – | – | – | 76.80 | 11.18 | CNC(=O)[C@@H]1NC(=O)c2sc(-c3ccncc3)cc2[C@H]1c1ccc(Cl)cc1 [Compound 160] |
| 109 | – | 13.3 | – | – | O=C1NCCC(c2ccc3ccncc3c2)c2nc(N3CCOCC3)sc21 (stereo not drawn) [Compound 165] |
| 69.2 | – | 7.59 | – | – | C=CCN1C(=O)c2sc(N3CCOCC3)cc2C(c2ccc(Cl)c(Cl)c2)C1C(=O)OC (stereo not drawn) [Compound 166, methyl 6-allyl-4-(3,4-dichlorophenyl)-2-(morpholin-4-yl)-7-oxo-4,5,6,7-tetrahydrothieno[2,3-c]pyridine-5-carboxylate] |
| 81.2 | – | 5.27 | – | – | NC(=O)c1cc(C2CCNC(=O)c3sc(N4CCOCC4)nc32)ccc1Cl (stereo not drawn) [Compound 167] |
| 117 | – | 74.5 | – | – | CNC(=O)c1[nH]c(=O)c2sc(N3CCOCC3)cc2c1-c1ccc(Cl)cc1 [Compound 168] |
| 49.3 | – | 16.1 | – | – | O=C1OC2(CCNC(=O)c3sc(N4CCOCC4)nc32)c2ccc(Cl)cc21 (stereo not drawn) [Compound 172, 5-chloro-2′-(morpholin-4-yl)-6′,7′-dihydro-3H-spiro[2-benzofuran-1,8′-[1,3]thiazolo[5,4-c]azepine]-3,4′(5′H)-dione] |
